Test results from ChEMBL document CHEMBL5291721, “A preclinical secondary pharmacology resource illuminates target-adverse drug reaction associations of marketed drugs” (Nat Commun, 2023).

Key:
[1] = biological target: T1, Alpha-2A adrenergic receptor (Homo sapiens, UniProt P08913); assay type: functional, cell-based
T1 sequence (P08913 whole entry): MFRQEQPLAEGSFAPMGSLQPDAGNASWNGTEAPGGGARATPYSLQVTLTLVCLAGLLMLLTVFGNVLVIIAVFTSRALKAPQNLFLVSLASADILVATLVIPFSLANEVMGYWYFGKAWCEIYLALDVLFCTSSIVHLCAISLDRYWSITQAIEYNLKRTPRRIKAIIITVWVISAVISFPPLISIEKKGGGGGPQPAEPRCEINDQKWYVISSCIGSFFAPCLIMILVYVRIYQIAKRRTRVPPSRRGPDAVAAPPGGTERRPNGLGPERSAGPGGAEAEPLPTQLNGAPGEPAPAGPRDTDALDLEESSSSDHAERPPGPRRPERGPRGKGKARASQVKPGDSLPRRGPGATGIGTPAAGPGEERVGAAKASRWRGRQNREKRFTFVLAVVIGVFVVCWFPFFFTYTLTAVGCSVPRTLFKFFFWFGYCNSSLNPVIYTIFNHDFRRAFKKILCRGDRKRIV

[2] = biological target: T1, Alpha-2A adrenergic receptor; assay type: functional, cell-based; remark: listed apart in the source
Cannabinoid receptor 1 = Cannabinoid receptor 1 (Homo sapiens, UniProt P21554); assay type: functional, cell-based
Chain of Cannabinoid receptor 1 (P21554 whole entry): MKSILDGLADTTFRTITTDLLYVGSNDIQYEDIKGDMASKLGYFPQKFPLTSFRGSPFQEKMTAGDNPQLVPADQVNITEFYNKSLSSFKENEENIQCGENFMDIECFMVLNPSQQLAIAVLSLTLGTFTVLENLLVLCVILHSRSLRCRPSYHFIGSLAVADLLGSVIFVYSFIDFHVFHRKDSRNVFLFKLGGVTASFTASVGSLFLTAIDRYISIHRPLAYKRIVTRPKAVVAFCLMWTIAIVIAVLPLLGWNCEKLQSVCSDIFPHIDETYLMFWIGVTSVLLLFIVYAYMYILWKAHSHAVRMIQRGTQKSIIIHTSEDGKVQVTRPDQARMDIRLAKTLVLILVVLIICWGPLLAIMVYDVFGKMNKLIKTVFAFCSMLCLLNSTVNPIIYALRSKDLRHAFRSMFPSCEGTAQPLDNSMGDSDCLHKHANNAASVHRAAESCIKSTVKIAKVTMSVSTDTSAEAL

[3] = biological target: Gamma-aminobutyric acid receptor subunit alpha-1 (Rattus norvegicus, UniProt P62813); assay type: functional
Chain of Gamma-aminobutyric acid receptor subunit alpha-1 (P62813 whole entry): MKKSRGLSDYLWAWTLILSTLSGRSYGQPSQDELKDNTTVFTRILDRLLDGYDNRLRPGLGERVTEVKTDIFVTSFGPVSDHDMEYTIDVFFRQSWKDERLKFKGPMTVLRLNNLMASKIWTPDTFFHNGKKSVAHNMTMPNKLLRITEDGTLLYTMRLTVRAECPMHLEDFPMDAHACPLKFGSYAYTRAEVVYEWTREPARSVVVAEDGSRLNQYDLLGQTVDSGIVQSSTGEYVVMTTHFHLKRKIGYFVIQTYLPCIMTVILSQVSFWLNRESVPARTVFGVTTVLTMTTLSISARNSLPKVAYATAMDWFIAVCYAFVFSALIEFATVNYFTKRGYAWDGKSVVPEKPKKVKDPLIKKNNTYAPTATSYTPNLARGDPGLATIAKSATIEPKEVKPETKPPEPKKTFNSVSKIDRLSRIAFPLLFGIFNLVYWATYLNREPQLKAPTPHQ

[4] = biological target: T2, 5-hydroxytryptamine receptor 1A (Homo sapiens, UniProt P08908); assay type: functional, cell-based
T2 sequence (P08908 whole entry): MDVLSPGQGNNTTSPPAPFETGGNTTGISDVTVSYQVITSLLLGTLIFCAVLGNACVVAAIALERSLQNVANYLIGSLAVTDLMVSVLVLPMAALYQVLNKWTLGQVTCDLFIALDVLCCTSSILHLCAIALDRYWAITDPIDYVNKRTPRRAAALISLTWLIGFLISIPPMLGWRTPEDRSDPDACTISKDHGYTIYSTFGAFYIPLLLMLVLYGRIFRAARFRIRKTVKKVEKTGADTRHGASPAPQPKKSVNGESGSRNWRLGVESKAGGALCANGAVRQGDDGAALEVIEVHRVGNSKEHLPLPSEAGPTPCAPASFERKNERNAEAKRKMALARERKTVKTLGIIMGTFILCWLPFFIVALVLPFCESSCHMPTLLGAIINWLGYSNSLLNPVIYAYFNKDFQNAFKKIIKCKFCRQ

Motilin receptor = Motilin receptor (Homo sapiens, UniProt O43193)
Chain of Motilin receptor (O43193 whole entry): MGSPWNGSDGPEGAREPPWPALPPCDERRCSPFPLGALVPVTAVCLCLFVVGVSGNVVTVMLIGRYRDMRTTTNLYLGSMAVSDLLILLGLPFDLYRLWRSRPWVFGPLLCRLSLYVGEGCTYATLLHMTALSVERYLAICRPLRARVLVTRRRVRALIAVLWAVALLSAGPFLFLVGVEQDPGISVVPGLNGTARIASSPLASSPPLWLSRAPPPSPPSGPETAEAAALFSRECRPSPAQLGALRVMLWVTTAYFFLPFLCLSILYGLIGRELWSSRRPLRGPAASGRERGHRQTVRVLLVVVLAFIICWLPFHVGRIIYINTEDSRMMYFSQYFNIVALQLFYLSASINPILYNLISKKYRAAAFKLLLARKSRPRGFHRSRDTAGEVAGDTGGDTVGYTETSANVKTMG

[5] = biological target: Kappa-type opioid receptor (Homo sapiens, UniProt P41145)
Chain of Kappa-type opioid receptor (P41145 whole entry): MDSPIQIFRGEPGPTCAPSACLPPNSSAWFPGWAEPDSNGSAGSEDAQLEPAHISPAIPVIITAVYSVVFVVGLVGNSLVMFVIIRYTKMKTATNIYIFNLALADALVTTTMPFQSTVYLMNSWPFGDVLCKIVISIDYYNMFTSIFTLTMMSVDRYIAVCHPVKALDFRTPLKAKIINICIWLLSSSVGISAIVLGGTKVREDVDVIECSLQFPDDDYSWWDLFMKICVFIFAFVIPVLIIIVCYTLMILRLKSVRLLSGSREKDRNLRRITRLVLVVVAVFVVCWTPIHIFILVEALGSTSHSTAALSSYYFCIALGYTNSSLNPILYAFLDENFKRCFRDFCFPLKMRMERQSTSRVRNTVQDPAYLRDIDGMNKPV

[6] = biological target: 3',5'-cyclic-AMP phosphodiesterase 4D (Homo sapiens, UniProt Q08499); assay type: functional
Chain of 3',5'-cyclic-AMP phosphodiesterase 4D (Q08499 whole entry): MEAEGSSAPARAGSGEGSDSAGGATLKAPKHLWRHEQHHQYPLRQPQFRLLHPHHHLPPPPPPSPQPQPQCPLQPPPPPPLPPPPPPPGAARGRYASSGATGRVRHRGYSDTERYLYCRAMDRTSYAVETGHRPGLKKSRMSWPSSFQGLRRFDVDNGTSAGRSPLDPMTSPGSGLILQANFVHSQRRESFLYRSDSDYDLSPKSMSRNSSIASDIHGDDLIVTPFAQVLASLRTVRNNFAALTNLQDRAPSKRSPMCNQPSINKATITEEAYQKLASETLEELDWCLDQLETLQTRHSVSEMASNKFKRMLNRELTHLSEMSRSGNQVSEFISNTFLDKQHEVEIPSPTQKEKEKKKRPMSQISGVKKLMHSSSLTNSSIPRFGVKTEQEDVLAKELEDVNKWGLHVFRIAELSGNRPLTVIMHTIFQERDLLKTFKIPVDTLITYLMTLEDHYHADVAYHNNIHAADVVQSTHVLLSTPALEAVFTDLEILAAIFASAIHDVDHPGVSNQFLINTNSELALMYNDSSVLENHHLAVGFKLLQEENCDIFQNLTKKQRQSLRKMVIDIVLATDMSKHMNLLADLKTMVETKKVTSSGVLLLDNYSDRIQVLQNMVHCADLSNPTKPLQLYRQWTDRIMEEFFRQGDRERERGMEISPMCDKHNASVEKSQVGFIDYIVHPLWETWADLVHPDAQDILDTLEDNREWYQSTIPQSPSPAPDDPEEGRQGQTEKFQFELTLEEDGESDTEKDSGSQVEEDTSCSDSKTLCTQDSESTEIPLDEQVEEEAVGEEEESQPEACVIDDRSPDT

[7] = biological target: Sodium-dependent dopamine transporter (Homo sapiens, UniProt Q01959)
Chain of Sodium-dependent dopamine transporter (Q01959 whole entry): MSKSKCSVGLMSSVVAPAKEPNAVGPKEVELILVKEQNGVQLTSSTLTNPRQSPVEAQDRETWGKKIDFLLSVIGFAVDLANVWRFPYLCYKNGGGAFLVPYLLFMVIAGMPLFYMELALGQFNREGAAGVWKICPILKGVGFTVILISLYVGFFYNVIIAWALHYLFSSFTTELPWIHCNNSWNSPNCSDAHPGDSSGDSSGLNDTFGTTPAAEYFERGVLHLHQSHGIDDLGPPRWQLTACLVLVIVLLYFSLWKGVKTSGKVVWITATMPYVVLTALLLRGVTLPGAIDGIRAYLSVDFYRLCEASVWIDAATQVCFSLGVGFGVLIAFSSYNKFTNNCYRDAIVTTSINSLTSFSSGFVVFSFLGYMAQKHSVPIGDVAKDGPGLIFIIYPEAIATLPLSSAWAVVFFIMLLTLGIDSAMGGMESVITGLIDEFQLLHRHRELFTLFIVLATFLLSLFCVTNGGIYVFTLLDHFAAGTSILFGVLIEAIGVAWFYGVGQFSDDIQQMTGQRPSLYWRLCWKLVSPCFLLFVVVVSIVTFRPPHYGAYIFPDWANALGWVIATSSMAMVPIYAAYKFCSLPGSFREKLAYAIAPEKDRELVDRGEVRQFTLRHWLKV

[8] = biological target: T3, Alpha-1A adrenergic receptor (Homo sapiens, UniProt P35348); assay type: functional, cell-based
T3 sequence (P35348 whole entry): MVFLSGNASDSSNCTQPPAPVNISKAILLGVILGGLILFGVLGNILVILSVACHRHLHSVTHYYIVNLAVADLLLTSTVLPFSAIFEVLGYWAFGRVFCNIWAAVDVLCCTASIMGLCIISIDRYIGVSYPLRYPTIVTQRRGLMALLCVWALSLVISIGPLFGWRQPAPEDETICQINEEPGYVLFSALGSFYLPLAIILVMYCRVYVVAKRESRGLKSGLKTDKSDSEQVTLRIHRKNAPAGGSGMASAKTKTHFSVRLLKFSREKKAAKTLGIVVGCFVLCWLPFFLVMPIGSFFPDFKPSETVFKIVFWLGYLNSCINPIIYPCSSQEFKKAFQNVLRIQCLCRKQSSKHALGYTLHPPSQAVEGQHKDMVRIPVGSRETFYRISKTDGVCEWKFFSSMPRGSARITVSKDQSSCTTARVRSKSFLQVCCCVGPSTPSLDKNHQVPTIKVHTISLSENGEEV

Prothrombin = Prothrombin (Homo sapiens, UniProt P00734); assay type: functional
Mu-type opioid receptor = Mu-type opioid receptor (Homo sapiens, UniProt P35372)
Chain of Mu-type opioid receptor (P35372 whole entry): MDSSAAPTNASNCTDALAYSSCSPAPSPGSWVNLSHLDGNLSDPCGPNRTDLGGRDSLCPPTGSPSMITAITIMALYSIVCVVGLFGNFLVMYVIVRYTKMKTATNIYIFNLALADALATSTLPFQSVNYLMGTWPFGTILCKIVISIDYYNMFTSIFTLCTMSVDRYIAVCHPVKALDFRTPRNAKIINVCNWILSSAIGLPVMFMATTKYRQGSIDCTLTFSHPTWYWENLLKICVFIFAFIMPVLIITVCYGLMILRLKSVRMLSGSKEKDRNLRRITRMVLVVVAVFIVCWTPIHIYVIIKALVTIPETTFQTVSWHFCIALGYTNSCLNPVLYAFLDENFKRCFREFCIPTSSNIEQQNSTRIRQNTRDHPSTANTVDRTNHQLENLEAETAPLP

[9] = biological target: T4, Muscarinic acetylcholine receptor M1 (Homo sapiens, UniProt P11229); assay type: functional
T4 sequence (P11229 whole entry): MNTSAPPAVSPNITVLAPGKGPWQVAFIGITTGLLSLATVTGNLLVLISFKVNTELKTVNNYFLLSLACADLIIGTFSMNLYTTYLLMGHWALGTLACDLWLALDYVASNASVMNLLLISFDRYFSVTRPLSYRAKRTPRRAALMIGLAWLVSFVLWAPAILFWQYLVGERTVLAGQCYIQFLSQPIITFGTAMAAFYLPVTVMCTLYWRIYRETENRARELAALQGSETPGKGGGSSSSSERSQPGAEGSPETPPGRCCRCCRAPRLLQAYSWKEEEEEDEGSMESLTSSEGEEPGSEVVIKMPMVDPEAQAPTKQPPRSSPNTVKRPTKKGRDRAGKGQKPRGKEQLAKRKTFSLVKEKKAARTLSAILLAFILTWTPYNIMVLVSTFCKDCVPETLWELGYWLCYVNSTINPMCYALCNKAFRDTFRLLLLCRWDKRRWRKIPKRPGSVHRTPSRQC
Further: assay procedure not described here.

| SMILES | AC50 [1] [µM] | AC50 [2] [µM] | AC50 (Cannabinoid receptor 1) [µM] | AC50 [3] [µM] | AC50 [4] [µM] | AC50 (Motilin receptor) [µM] | AC50 [5] [µM] | AC50 [6] [µM] | AC50 [7] [µM] | AC50 [8] [µM] | AC50 (Prothrombin) [µM] | AC50 (Mu-type opioid receptor) [µM] | AC50 [9] [µM] |
| --- | --- | --- | --- | --- | --- | --- | --- | --- | --- | --- | --- | --- | --- |
| CCOC(=O)[C@H](CCc1ccccc1)N[C@@H](C)C(=O)N1[C@H](C(=O)O)C[C@@H]2CCC[C@@H]21 | > 10 | > 10 | > 30 | > 10 | > 10 | > 10 | > 10 | > 30 | > 10 | – | – | – | – |
| CC(=O)Nc1ccc(O)cc1 [ACETAMINOPHEN] | – | > 30 | > 30 | > 30 | > 30 | > 30 | – | > 30 | > 30 | > 30 | > 30 | > 30 | – |
| CC[C@H]1OC(=O)[C@H](C)[C@@H](O[C@H]2C[C@@](C)(OC)[C@@H](O)[C@H](C)O2)[C@H](C)[C@@H](O[C@@H]2O[C@H](C)C[C@H](N(C)C)[C@H]2O)[C@](C)(O)C[C@@H](C)CN(C)[C@H](C)[C@@H](O)[C@]1(C)O [AZITHROMYCIN] | > 10 | > 10 | > 30 | > 10 | > 10 | > 10 | > 10 | > 30 | > 10 | > 30 | > 30 | > 30 | – |
| NCC(CC(=O)O)c1ccc(Cl)cc1 (centres undefined) [BACLOFEN] | > 30 | > 30 | > 30 | > 30 | > 30 | > 30 | > 10 | > 30 | > 30 | > 30 | > 30 | > 30 | – |
| CC(C)C[C@H]1C(=O)N2CCC[C@H]2[C@]2(O)O[C@](NC(=O)[C@@H]3C=C4c5cccc6[nH]c(Br)c(c56)C[C@H]4N(C)C3)(C(C)C)C(=O)N12 [BROMOCRIPTINE] | – | – | > 30 | > 30 | 3.1 | > 30 | 12.8 | 5.5 | > 30 | 1.07 | > 30 | 3.45 | – |
| Cc1ccc(-c2cc(C(F)(F)F)nn2-c2ccc(S(N)(=O)=O)cc2)cc1 [CELECOXIB] | > 10 | > 10 | > 30 | > 10 | > 10 | > 10 | > 10 | 20 | 5.86 | – | – | – | – |
| CC1=C(C(=O)O)N2C(=O)[C@@H](NC(=O)[C@H](N)c3ccccc3)[C@H]2SC1 [CEPHALEXIN ANHYDROUS] | > 30 | > 30 | > 30 | > 10 | > 30 | > 10 | > 10 | > 30 | – | – | – | – | – |
| CN(C)CCC(c1ccc(Cl)cc1)c1ccccn1 (centres undefined) [CHLORPHENIRAMINE] | > 10 | > 10 | > 30 | > 10 | > 10 | > 10 | > 10 | > 10 | 1.46 | – | – | – | – |
| C[C@]12CCC(=O)C=C1CC[C@@H]1[C@@H]2[C@@H](O)C[C@@]2(C)[C@H]1CC[C@]2(O)C(=O)CO [HYDROCORTISONE] | > 10 | > 10 | > 30 | > 10 | > 10 | > 10 | > 10 | > 30 | > 10 | – | – | – | – |
| CCC(C)n1ncn(-c2ccc(N3CCN(c4ccc(OCC5COC(Cn6cncn6)(c6ccc(Cl)cc6Cl)O5)cc4)CC3)cc2)c1=O (centres undefined) [ITRACONAZOLE] | > 30 | > 30 | > 30 | > 30 | > 30 | > 30 | > 30 | 18 | > 30 | – | – | – | – |
| c1ccc([C@H]2CN3CCSC3=N2)cc1 [LEVAMISOLE] | > 30 | > 30 | > 30 | > 30 | > 30 | > 30 | > 30 | > 30 | > 30 | – | – | – | – |
| C[C@H]1CNCCc2ccc(Cl)cc21 [LORCASERIN] | > 30 | 7.2 | 2.6 | > 30 | > 30 | > 30 | – | > 30 | > 30 | – | – | – | > 30 |
| C[C@@H](O)[C@H]1C(=O)N2C(C(=O)O)=C(S[C@@H]3CN[C@H](C(=O)N(C)C)C3)[C@H](C)[C@H]12 [MEROPENEM] | > 300 | > 300 | > 300 | > 10 | > 300 | > 300 | > 10 | > 300 | > 300 | – | – | – | – |
| CCCN1C[C@H](CSC)C[C@@H]2c3cccc4[nH]cc(c34)C[C@H]21 [PERGOLIDE] | – | – | > 10 | > 30 | – | > 30 | 12.9 | > 30 | 14.9 | – | – | – | – |
| CS(=O)(=O)c1ccc(C2=C(c3ccccc3)C(=O)OC2)cc1 [ROFECOXIB] | > 30 | > 30 | > 30 | 4.7 | > 30 | > 10 | > 10 | > 30 | > 10 | > 30 | > 30 | > 30 | – |
| CO[C@H]1C[C@@H]2CC[C@@H](C)[C@@](O)(O2)C(=O)C(=O)N2CCCC[C@H]2C(=O)O[C@H]([C@H](C)C[C@@H]2CC[C@@H](O)[C@H](OC)C2)CC(=O)[C@H](C)/C=C(\C)[C@@H](O)[C@@H](OC)C(=O)[C@H](C)C[C@H](C)/C=C/C=C/C=C/1C [SIROLIMUS] | > 10 | > 10 | > 30 | > 10 | > 10 | > 10 | > 10 | > 30 | > 30 | > 30 | > 30 | > 30 | – |
| Cc1cn([C@H]2C=C[C@@H](CO)O2)c(=O)[nH]c1=O [STAVUDINE] | > 10 | > 10 | > 30 | > 10 | > 10 | > 10 | > 10 | > 30 | > 10 | > 30 | > 30 | > 30 | – |
| N[C@@H]1[C@H]2CN(c3nc4c(cc3F)c(=O)c(C(=O)O)cn4-c3ccc(F)cc3F)C[C@@H]12 [TROVAFLOXACIN] | > 30 | > 30 | > 30 | > 30 | > 30 | > 30 | – | > 30 | > 30 | – | – | – | – |
